These results are taken from patent US7531567B2, “Use of a medicament containing an effector of the glutathione metabolism together with α-lipoic acid in kidney replacement therapy” (Serumwerk Bernburg AG, priority 2001, dated 2009).

Format in all cases: cell-based, human
The subject of test [1] is peritoneal macrophages. In words: phagocytic ability of peritoneal macrophages (fluorochrome-labelled bacteria). The conditions noted are these: treatment period of 6 days; for Phagocytosis rate: α-lipoic acid 50 μM, ambroxole 10 μM, enalapril 5 μM, captopril 10 μM. Here is the method:
Peritoneal macrophages were isolated analogously to the procedure described under example 3 and cultured ex vivo. The determination of the phagocytic power was carried out by means of a cytofluorometric test at the individual cell level. In this test, the macrophages were cocultured with opsonized and fluorochrome-labelled bacteria. The amount of bacteria taken up in a defined time period was recorded quantitatively by means of the fluorescence intensity in the macrophages and was regarded as a measure of their phagocytic capacity. The influence of the combinations used according to the invention on the phagocytic ability of the peritoneal macrophages after a treatment period of 6 days is presented in Table 3.

Test [2] deals with peritoneal macrophages. Nature of the test: degree of differentiation and activation of peritoneal macrophages (CD15, CD11c, CD69, CD71). The conditions noted are these: incubation for 6 days, control = 1.0, α-lipoic acid 50 μM, ambroxole 10 μM, enalapril 5 μM, captopril 10 μM; for CD15/69: CD69 on CD15-positive cells; for CD11c/71: CD71 on CD11c-positive cells. How it is done: Peritoneal macrophages were isolated from patients under kidney replacement therapy according to the processes described under example 3 and cultured in the presence of the combinations of α-lipoic acid and effectors of the glutathione metabolism named according to the invention. After incubation for 6 days, the degree of differentiation of the peritoneal macrophages was determined cytofluorometrically by means of the expression of the cell surface antigens CD15 and CD11c, and the degree of cellular activation by means of the coexpression of the activation antigens CD69 on CD15-positive cells and CD71 on CD11c-positive cells.

Test [3] concerns T lymphocytes. Nature of the test: activation markers CD69, CD25, CD71 of phytohemagglutinin-stimulated T lymphocytes. The conditions noted are these: thiol-deficient cells, culture period of 72 hours, FIG. 3. Here is the method:
In the culture batch described under example 1, human T lymphocytes were stimulated with […] of phyto-hemagglutinin. […] The influence of the combinations used according to the invention on the activation markers CD69 (early activation antigen), CD25 (intermediate activation antigen) and CD71 (late activation antigen) of T lymphocytes was investigated. In FIG. 3, the action of the combination of α-lipoic acid and ambroxole (FIG. 3a), and α-lipoic acid and enalapril (FIG. 3b) on the activation index of T lymphocytes is shown. Compared with normal T lymphocytes (activation index=1.0), in thiol-deficient cells a clear lowering of the activatability, confirming the cellular functional disorder, is to be noted. […] It can thus be concluded that the normalization of the cellular thiol status mediated by the combined use of α-lipoic acid and the respective effectors of the glutathione metabolism is accompanied by a restitution of the cellular functionality.

In test [4] the test system is peritoneal macrophages. Nature of the test: cellular thiol expression of peritoneal macrophages in kidney replacement therapy. The conditions noted are these: time kinetics over 14 days (n=12); FIG. 4. Here is the method:
Peritoneal macrophages were isolated from the effluate of the peritoneal dialysis of high-grade renally insufficient patients, taken up in cell culture medium and incubated in a gas incubator at 37° C., a relative humidity of 98% and 7.5% relative air-CO2 content. In order to test the influence of the combinations used according to the invention on the thiol status of the peritoneal macrophages, in each case a fraction was treated with α-lipoic acid, the effector of the glutathione metabolism ambroxole or the ACE inhibitor enalapril or with the combination of α-lipoic acid/ambroxole or α-lipoic acid/enalapril, while in each case a further fraction was used as an untreated control. The determination of the cellular thiol status was carried out by means of the measuring method described under 1. The membrane expression of thiols was determined by means of the mean fluorescence intensity (mfi) of the sample (3000 cells/measurement) after coupling to a chloromethylfluorochrome derivative. In FIG. 4, the effect of the combination of α-lipoic acid and ambroxole (FIG. 4a), and α-lipoic acid and enalapril (FIG. 4b) in the time kinetics over 14 days is shown (n=12).

Test [5] has as its system peritoneal macrophages. Nature of the test: stability of membrane-bound thiol restitution in peritoneal macrophages in the dialysis model. The conditions noted are these: dialysis model over 14 days; FIG. 7. Here is the method: The peritoneal macrophages described under example 3, which were thiol-restituted by means of the combinations used according to the invention, were removed from this test system after 6 days and cultured in a dialysis model over a period of 14 days. For this, the peritoneal macrophages were adapted to mobile collagen IV-coated matrices and brought into contact with conventional dialysis solution 3 times daily for 60 minutes each. This model served here for the induction of a combined […]/osmotic stress. In FIG. 6, the action of the combination of α-lipoic acid and ambroxole (FIG. 6a), and α-lipoic acid and enalapril (FIG. 6b) on the intracellular thiol expression of the peritoneal macrophages in the time kinetics is presented. The membrane expression of thiols was determined by means of the mean fluorescence intensity (mfi) of the sample (3000 cells/measurement) after coupling to a chloro-methylfluorochrome derivative.

Test [6] concerns peritoneal macrophages. Nature of the test: cytokine synthesis of peritoneal macrophages (enzyme immunoassay). The conditions noted are these: treatment period of 6 days (n=10); α-lipoic acid 50 μM, ambroxole 10 μM, enalapril 5 μM, captopril 10 μM. How it is done: In parallel to this, in this experimental batch the cell culture supernatants were recovered and the cytokines interleukin-6 (IL-6) and interleukin-1 receptor antagonist (IL-1ra) contained therein, synthesized and secreted by the peritoneal macrophages, were determined.

The test system of test [7] is lymphocytes (peripheral immune cells). Nature of the test: intracellular thiol expression of peripheral immune cells (CMFDA flow cytofluorimetry). The conditions noted are these: α-lipoic acid 50 μM, captopril 10 μM, combination at the same concentrations. Here is the method:
Peripheral immune cells of healthy donors (n=9) were isolated from the peripheral blood by means of density gradient centrifugation. Lymphocytes having a donor-dependent relative proportion of about 90% in this case normally represent the main fraction of the resulting total population of mononuclear cells. 10% of the mononuclear cells are represented by monocytes. The mononuclear cells obtained were taken up in special cell culture media and incubated in a gas incubator at 37° C., a relative humidity of 98% and 5% relative air-CO2 content. The metabolism of the primarily resting immune cells was activated by means of mitogenic stimulation (0.5 μg/ml of phytohemagglutinin). In order to test the influence of the combinations used according to the invention on the thiol status of thiol-deficient immune cells, these were artificially thiol-depleted. This was carried out by culturing in thiol-deficient media (RPMI 1603) according to tested procedures. Comparison cultures using whole media (RPMI 1640) served for the definition of the best possible normal value under culture conditions. […] Primarily nonfluorogenic CMFDA is in this case passively taken up by the cell. Binding to cytoplasmic thiol groups takes place via the chloromethyl radical. After removal of the acetate radicals by nonspecific cellular esterases, this, now cell membrane-impermeable complex becomes fluorogenic at an excitation wavelength λex=490 nm with an emission wavelength λem=520 nm. The mean fluorescence intensity of the sample (10,000 cells) is directly proportional to the concentration of the intracellular thiol groups. In FIG. 1, the action of the combination of α-lipoic acid and ambroxole (FIG. 1a) and α-lipoic acid and enalapril (FIG. 1b) on the intracellular thiol expression of lymphocytes is shown. […] The data are shown as the ratio of the cellular fluorescence intensity for calibration particles (beads) in each case analyzed in parallel. The active compound concentration of the respective combination is identical to the concentrations of the individual components.

Test [8] concerns peripheral immune cells. In words: membrane-bound thiol expression of peripheral immune cells (CMTMR flow cytofluorimetry). The conditions noted are these: α-lipoic acid 50 μM, captopril 10 μM, combination at the same concentrations. Here is the method:
Peripheral immune cells of healthy donors (n=9) were isolated from the peripheral blood by means of density gradient centrifugation. Lymphocytes having a donor-dependent relative proportion of about 90% in this case normally represent the main fraction of the resulting total population of mononuclear cells. 10% of the mononuclear cells are represented by monocytes. The mononuclear cells obtained were taken up in special cell culture media and incubated in a gas incubator at 37° C., a relative humidity of 98% and 5% relative air-CO2 content. The metabolism of the primarily resting immune cells was activated by means of mitogenic stimulation (0.5 μg/ml of phytohemagglutinin). In order to test the influence of the combinations used according to the invention on the thiol status of thiol-deficient immune cells, these were artificially thiol-depleted. This was carried out by culturing in thiol-deficient media (RPMI 1603) according to tested procedures. Comparison cultures using whole media (RPMI 1640) served for the definition of the best possible normal value under culture conditions. The expression of membrane-bound thiol groups was likewise determined by flow cytofluorimetry. In this connection, chloromethyltetramethylrhodamine (CMTMR) was employed as a thiol conjugate under the conditions of a blocked membrane potential and of an inhibited diffusion capacity of the cells. The fluorescence intensity of the bound fluorochrome molecules on the cell membrane is in this case in turn proportional to the amount of the thiol groups on the cell surface.

Structures can show the parent of a compound that is named as a salt.

Turning to `Nc1c(Br)cc(Br)cc1CNC1CCC(O)CC1` (stereo not drawn) [Ambroxole, hydrochloride], in test [1], the “increase in the phagocytosis rate in relation to the untreated control, factor” value amounted to 1.35 and the Phagocytosis rate is recorded as 501 ± 52 mfi/10,000 cells. Also, in test [2], the CD15/69 was 0.98 ± 0.11, the CD11c/71 was determined as 0.96 ± 0.1, the CD11c is given as 1.01 ± 0.09 and the CD15 was found to be 0.98 ± 0.13. For the same compound, in test [3], the “effect on the activation index of T lymphocytes (in words)” value was “no influence on one of the three activation markers”. Besides, the “effect on the cellular thiol expression of peritoneal macrophages (in words)” value in test [4] is reported as “no effect”. In test [5], the “membrane-bound thiol expression in the dialysis model (in words)” value was “marginal effects”. In test [6], the IL-1ra stood at 118.6 ± 21.3 ng/10^6 cells and the IL-6 is recorded as 51.8 ± 8.1 ng/10^6 cells.

For the compound `C[C@H](CS)C(=O)N1CCC[C@H]1C(=O)O` [Captopril, 1-[(2S)-3-mercapto-2-methylpropionyl]-L-proline], in test [1], the Phagocytosis rate is given as 653 ± 43 mfi/10,000 cells. In addition, the intracellular thiol expression was 2.88 ± 0.20 mfiBeads/Ratio in test [7] (culture period 0 d); 2.80 ± 0.21 mfiBeads/Ratio in test [7] (culture period 1 d); 2.76 ± 0.22 mfiBeads/Ratio in test [7] (culture period 2 d); 2.49 ± 0.26 mfiBeads/Ratio in test [7] (culture period 3 d); 2.21 ± 0.36 mfiBeads/Ratio in test [7] (culture period 4 d); 1.83 ± 0.33 mfiBeads/Ratio in test [7] (culture period 6 d). The intracellular thiol expression in test [7] (culture period 8 d) was 1.02 ± 0.39 mfiBeads/Ratio; in test [7] (culture period 10 d) it was 0.91 ± 0.46 mfiBeads/Ratio; in test [7] (culture period 12 d), 0.76 ± 0.49 mfiBeads/Ratio; in test [7] (culture period 14 d) it was 0.75 ± 0.56 mfiBeads/Ratio. Moreover, the Membrane-bound thiol expression in test [8] (culture period 0 d) was determined as 2.37 ± 0.45 mfiBeads/Ratio; in test [8] (culture period 1 d) it was 2.63 ± 0.39 mfiBeads/Ratio; in test [8] (culture period 2 d), 2.54 ± 0.41 mfiBeads/Ratio; in test [8] (culture period 3 d), 2.52 ± 0.38 mfiBeads/Ratio; in test [8] (culture period 4 d), 2.50 ± 0.41 mfiBeads/Ratio; in test [8] (culture period 6 d), 2.46 ± 0.50 mfiBeads/Ratio. Moreover, the Membrane-bound thiol expression is 2.01 ± 0.39 mfiBeads/Ratio in test [8] (culture period 8 d), 1.68 ± 0.29 mfiBeads/Ratio in test [8] (culture period 10 d), 1.02 ± 0.51 mfiBeads/Ratio in test [8] (culture period 12 d) and 0.99 ± 0.46 mfiBeads/Ratio in test [8] (culture period 14 d). The CD15/69 in test [2] is given as 1.69 ± 0.21. Besides, the CD11c/71 in test [2] was 1.52 ± 0.16. Moreover, the CD11c in test [2] stood at 1.26 ± 0.24. Besides, the CD15 in test [2] was determined as 1.19 ± 0.14. The same compound registered an IL-1ra in test [6] of 129.4 ± 25.1 ng/10^6 cells. In addition, the IL-6 in test [6] came to 42.9 ± 7.7 ng/10^6 cells.

Consider `CCOC(=O)[C@H](CCc1ccccc1)NC(C)C(=O)N1CCCC1C(=O)O` (stereo in doubt) [Enalapril, 1-{N—[(S)-1-ethoxycarbonyl-3-phenylpropyl]-L-alanyl}-L-proline], for which, in test [1], the “increase in the phagocytosis rate in relation to the untreated control, factor” value is given as 1.53 and the Phagocytosis rate was 567 ± 59 mfi/10,000 cells. In addition, in test [2], the CD15/69 came to 1.19 ± 0.12, the CD11c/71 amounted to 1.10 ± 0.14, the CD11c is given as 1.23 ± 0.22 and the CD15 was found to be 1.21 ± 0.22. In test [3], the “effect on the activation index of T lymphocytes (in words)” value was “only equivalent in the case of the effectuation of the CD25 antigen of the α-lipoic acid”. Moreover, the “membrane-bound thiol expression in the dialysis model (in words)” value in test [5] is “marginal effects”. In test [6], this compound registered an IL-1ra of 121.1 ± 16.9 ng/10^6 cells and an IL-6 of 41.7 ± 7.3 ng/10^6 cells.
